Assays:
Assay in all cases: Anti-proliferative assay (Oncodesign)
Format in all cases: cell-based
[1] = system: HCT-15; conditions: Homo sapiens; HCT-15 (COLON); read-out: IC50 (Concentration of test compound)
Protocol: (§1) The anti-proliferative activities of the parent compounds of the pro-drugs of the invention may be determined by measuring the ability of the compounds to inhibition of cell growth in a number of cell lines such as the human colon cancer cell line HCT116. Inhibition of cell growth is measured using the Alamar Blue assay (Nociari, M. M, Shalev, A., Benias, P., Russo, C. Journal of Immunological Methods 1998, 213, 157-167). The method is based on the ability of viable cells to reduce resazurin to its fluorescent product resorufin. For each proliferation assay cells are plated onto 96 well plates and allowed to recover for 16 hours prior to the addition of inhibitor compounds for a further 72 hours. At the end of the incubation period 10% (v/v) Alamar Blue is added and incubated for a further 6 hours prior to determination of fluorescent product at […]. In the case of the non-proliferating cell assay cells are maintained at confluence for 96 hour prior to the addition of inhibitor compounds for a further 72 hours. The number of viable cells is determined by Alamar Blue assay as before. Cell lines may be obtained from the ECACC (European Collection of cell Cultures).
(§2) The parent compound of the pro-drugs of Examples 1 to 25 i.e. (2,4-dihydroxy-5-isopropyl-phenyl)-[5-(4-methyl-piperazin-1-ylmethyl)-1,3-dihydro-isoindol-2-yl]-methanone, in the form of its L-lactate salt, was tested in anti-proliferative assays against one hundred cell lines by Oncodesign (Dijon, France). The IC50 values against each cell line are set out in the table below and the figures in the table refer to nanomolar concentrations. The compounds were tested up to a concentration of 10,000 nanomolar.

[2] = system: MC90; conditions: MC90 (BLOOD); read-out: IC50 (Concentration of test compound)
Protocol: as §1, §2

[3] = system: CGL-3; conditions: CGL-3 (BRAIN); read-out: IC50 (Concentration of test compound)
Protocol: as §1, §2

[4] = system: NCI-H596; conditions: Homo sapiens; NCI-H596 (LUNG); read-out: IC50 (Concentration of test compound)
Protocol: as §1, §2

[5] = system: HL-60/R10; conditions: Homo sapiens; HL-60/R10 (BLOOD); read-out: IC50 (Concentration of test compound)
Protocol: as §1, §2

[6] = system: PA-1; conditions: Homo sapiens; PA-1 (OVARY); read-out: IC50 (Concentration of test compound)
Protocol: as §1, §2

[7] = system: Caov-3; conditions: Homo sapiens; Caov-3 (OVARY); read-out: IC50 (Concentration of test compound)
Protocol: as §1, §2

[8] = system: Hs 294T; conditions: Homo sapiens; Hs 294T (SKIN); read-out: IC50 (Concentration of test compound)
Protocol: as §1, §2

[9] = system: CGL-1; conditions: CGL-1 (BRAIN); read-out: IC50 (Concentration of test compound)
Protocol: as §1, §2

[10] = system: Evsa-T; conditions: Homo sapiens; Evsa-T (BREAST); read-out: IC50 (Concentration of test compound)
Protocol: as §1, §2

[11] = system: Hs 746T; conditions: Homo sapiens, Hs746T; Hs 746T (STOMACH); read-out: IC50 (Concentration of test compound)
Protocol: as §1, §2

[12] = system: MDA-MB-435S; conditions: Homo sapiens; MDA-MB-435S (BREAST); read-out: IC50 (Concentration of test compound)
Protocol: as §1, §2

[13] = system: EHEB; conditions: EHEB (BLOOD); read-out: IC50 (Concentration of test compound)
Protocol: as §1, §2

[14] = system: Calu-3; conditions: Homo sapiens; Calu-3 (LUNG); read-out: IC50 (Concentration of test compound)
Protocol: as §1, §2

[15] = system: UZG4-MEL; conditions: UZG4-MEL (SKIN); read-out: IC50 (Concentration of test compound)
Protocol: as §1, §2

[16] = system: A-375-SM; conditions: Homo sapiens, A375-SM; A-375-SM (SKIN); read-out: IC50 (Concentration of test compound)
Protocol: as §1, §2

[17] = system: LB13-SCLC/OC3; conditions: LB13-SCLC/OC3 (LUNG); read-out: IC50 (Concentration of test compound)
Protocol: as §1, §2

[18] = system: NIH: OVCAR-3; conditions: Homo sapiens; NIH: OVCAR-3 (OVARY); read-out: IC50 (Concentration of test compound)
Protocol: as §1, §2

[19] = system: BB30-HNSCC; conditions: BB30-HNSCC (HEAD AND NECK); read-out: IC50 (Concentration of test compound)
Protocol: as §1, §2

[20] = system: MCF-7; conditions: Homo sapiens, MCF7; MCF-7 (BREAST); read-out: IC50 (Concentration of test compound)
Protocol: as §1, §2

[21] = system: SK-MEL-5; conditions: Homo sapiens; SK-MEL-5 (SKIN); read-out: IC50 (Concentration of test compound)
Protocol: as §1, §2

[22] = system: BV-173; conditions: Homo sapiens; BV-173 (BLOOD); read-out: IC50 (Concentration of test compound)
Protocol: as §1, §2

[23] = system: MDA-MB-435; conditions: Homo sapiens; MDA-MB-435 (BREAST); read-out: IC50 (Concentration of test compound)
Protocol: as §1, §2

[24] = system: LAMA-84; conditions: Homo sapiens; LAMA-84 (BLOOD); read-out: IC50 (Concentration of test compound)
Protocol: as §1, §2

[25] = system: LNCaP-FGC; conditions: LNCaP-FGC (PROSTATE); read-out: IC50 (Concentration of test compound)
Protocol: as §1, §2

CC(C)c1cc(C(=O)N2Cc3ccc(CN4CCN(C)CC4)cc3C2)c(O)cc1O [(2,4-dihydroxy-5-isopropyl-phenyl)-[5-(4-methyl-piperazin-1-ylmethyl)-1,3-dihydro-isoindol-2-yl]-methanone]
IC50 [1]: > 10000 nM | IC50 [2]: 93 nM | IC50 [3]: 75 nM | IC50 [4]: 84 nM | IC50 [5]: 847 nM | IC50 [6]: > 10000 nM | IC50 [7]: 94 nM | IC50 [8]: 219 nM | IC50 [9]: > 10000 nM | IC50 [10]: 168 nM | IC50 [11]: 34 nM | IC50 [12]: 26 nM | IC50 [13]: > 10000 nM | IC50 [14]: > 10000 nM | IC50 [15]: 180 nM | IC50 [16]: 340 nM | IC50 [17]: 21 nM | IC50 [18]: 45 nM | IC50 [19]: 273 nM | IC50 [20]: > 10000 nM | IC50 [21]: 185 nM | IC50 [22]: 73 nM | IC50 [23]: 122 nM | IC50 [24]: 1100 nM | IC50 [25]: 78 nM
